The values that follow come from US11278492B2 (priority 2018, dated 2022).

For data set [1] the following is noted: oral olanzapine tablets or disintegrating tablets, previously reported; cited from earlier work.
Data set [2] is described as follows: Phase 1 clinical trial, plasma olanzapine pharmacokinetics. The conditions noted are these: human, in vivo. The procedure:
Randomization for Periods 1 and 2 was performed for each subject on Day 1.
In Period 1, subjects were assigned to 1 of 3 cohorts (n=12 per cohort). […] Dose administration occurred at Visit 2 on Day 1 (relative to each cohort). Each cohort was scheduled to allow time for Period 2 safety assessments to occur prior to dose escalation in the next cohort period 2 dosing. Subjects remained confined to the study site for 72 hours after dosing. Subjects returned to the study site on Days 5 and 6 (Visits 3 and 4) for follow-up assessments.
In Period 2, subjects returned to the study site after a washout period of at least 14 days. Subjects from each Period 1 cohort received a single dose of INP105 (5, 10 or 15 mg) or placebo in a 9:3 ratio, as outlined in Table 11. Dose administration occurred on Day 15. (Dosing was permitted to occur later than the calendar Day 15 as required for scheduling (up to 2 days) but not before Day 15.) Ascending-dose levels of INP105 (5, 10 or 15 mg) were administered to ascending cohort numbers as follows:
The following pharmacokinetic parameters were determined: Cmax, Tmax, Tlast, AUClast, and t1/2 where possible.

For data set [3], the system named is rat. Put plainly: 14-day sub-chronic toxicity in rat with nasal olanzapine delivery. The data set is classed as in vivo. The conditions noted are these: nasal delivery (data not shown).

Turning to `Cc1cc2c(s1)Nc1ccccc1N=C2N1CCN(C)CC1` [olanzapine], the “time to peak plasma concentration (Tmax)” value in data set [1] was 300 to 480 min. Further, the Tmax – broadly, the time from dosing to the highest level – in data set [2] (im, 5 mg) was 19.8 to 21.6 min; in data set [2] (inhaled or intranasal) it was 9.6 to 10.2 min; in data set [2] (po, 10 mg), 120 min. In addition, the Cmax (usually the highest concentration seen after dosing) in data set [2] (inhaled or intranasal, 15 mg) was ≥ 30 ng/mL. The “macroscopic or microscopic findings” value in data set [3] is recorded as “No macroscopic or microscopic findings”.
